Reference: PubChem BioAssay (NCI)
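Interpolation was linear, between the two tested concentrations surrounding the appropriate level; five concentrations were tested over 48 hours in 96-well plates. TGI: total growth inhibition.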

What was measured:
Test in all cases: NCI tumour cell line growth inhibition, 48 h
[1] = system: LOX IMVI melanoma
[2] = system: SK-MEL-2 melanoma
[3] = system: RPMI-8226 leukemia
[4] = system: SR leukemia
[5] = system: SW-620 colon
[6] = system: SK-MEL-5 melanoma
[7] = system: ACHN renal
[8] = system: CCRF-CEM leukemia
[9] = system: M19-MEL melanoma
[10] = system: MALME-3M melanoma
[11] = system: NCI-H522 lung
[12] = system: M14 melanoma
[13] = system: HOP-62 NSCLC
[14] = system: K-562 leukemia
[15] = system: U251 CNS
[16] = system: CAKI-1 renal
[17] = system: NCI-H226 lung
[18] = system: KM12 colon
[19] = system: KM20L2 colon
[20] = system: RXF-631 renal
[21] = system: EKVX NSCLC
[22] = system: HL-60(TB) leukemia
[23] = system: RXF 393 renal
[24] = system: DMS 273 small cell lung
[25] = system: SK-MEL-28 melanoma
[26] = system: A498 renal
[27] = system: HCT-15 colon
[28] = system: HOP-92 NSCLC
[29] = system: MOLT-4 leukemia
[30] = system: HCT-116 colon
[31] = system: SNB-19 CNS
[32] = system: HOP-18 NSCLC
[33] = system: XF 498 CNS
[34] = system: SK-OV-3 ovarian
[35] = system: SNB-75 CNS
[36] = system: UACC-257 melanoma
[37] = system: NCI-H460 lung
[38] = system: UO-31 renal
[39] = system: SNB-78 CNS
[40] = system: OVCAR-5 ovarian
[41] = system: DMS 114 small cell lung
[42] = system: DLD-1 colon
[43] = system: SN12C renal
[44] = system: OVCAR-8 ovarian
[45] = system: TK-10 renal
[46] = system: LXFL 529 NSCLC
[47] = system: 786-0 renal
[48] = system: OVCAR-4 ovarian
[49] = system: A549 NSCLC
[50] = system: HT29 colon
[51] = system: COLO 205 colon
[52] = system: UACC-62 melanoma
[53] = system: SF-268 CNS
[54] = system: OVCAR-3 ovarian

Measured: TGI

CC(=O)OCC1OC(n2cccnc2=O)C(OC(C)=O)C1OC(C)=O (centres undefined)
> 100 µM: all assays above
